Results taken from PubChem BioAssay AID330 (DTP/NCI, 2004).
Several values for one entry are separate records, joined by “and”; a condition that tells them apart may be missing. Equal entries are not always repeated. Inconclusive results and toxic doses are left out. The calls were made as follows: active = survival T/C of 150% or more; inactive = T/C below 125% in these data.

Test system: P388 leukemia ip, CD2F1 mice, survival T/C
Experiment: NCI In Vivo Anticancer Drug Screen. Data for tumor model P388 Leukemia (intraperitoneal) in CD2F1 (CDF1) mice
Conditions: endpoint: median survival time, higher = longer survival
Procedure, shortened: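 Mice carrying the transplanted tumor received test compound or vehicle. Survival was recorded in each group, and the value is the treated-group measurement divided by that of the vehicle-treated control group.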

[1] = dose: 1.56 mg/kg/injection, schedule: Q01DX009 (ip), vehicle: water
[2] = dose: 3.13 mg/kg/injection, schedule: Q01DX009 (ip), vehicle: water
[3] = dose: 6.25 mg/kg/injection, schedule: Q01DX009 (ip), vehicle: water
[4] = dose: 12.5 mg/kg/injection, schedule: Q01DX009 (ip), vehicle: water
[5] = dose: 25.0 mg/kg/injection, schedule: Q01DX009 (ip), vehicle: saline
[6] = dose: 50.0 mg/kg/injection, schedule: Q01DX009 (ip), vehicle: saline
[7] = dose: 50.0 mg/kg/injection, schedule: Q01DX005 (ip), vehicle: Klucel (hydroxypropylcellulose) (HPC)
[8] = dose: 100.0 mg/kg/injection, schedule: Q01DX005 (ip), vehicle: Klucel (hydroxypropylcellulose) (HPC)
[9] = dose: 200.0 mg/kg/injection, schedule: Q01DX005 (ip), vehicle: Klucel (hydroxypropylcellulose) (HPC)
[10] = dose: 60.0 mg/kg/injection, schedule: Q01DX005 (ip), vehicle: saline with Tween-80
[11] = dose: 100.0 mg/kg/injection, schedule: Q01DX005 (ip), vehicle: saline with Tween-80
[12] = dose: 30.0 mg/kg/injection, schedule: Q01DX005 (ip), vehicle: saline with Tween-80
[13] = dose: 120.0 mg/kg/injection, schedule: Q01DX005 (ip), vehicle: saline with Tween-80
[14] = dose: 240.0 mg/kg/injection, schedule: Q01DX005 (ip), vehicle: saline with Tween-80
[15] = dose: 100.0 mg/kg/injection, schedule: Q04DX003 (ip), vehicle: saline with Tween-80
[16] = dose: 200.0 mg/kg/injection, schedule: Q04DX003 (ip), vehicle: saline with Tween-80
[17] = dose: 50.0 mg/kg/injection, schedule: Q01DX005 (ip), vehicle: saline with Tween-80

Measured: T/C

C=CC1=NC(C)(C)CC(C)O1 (stereo not drawn)
inactive: [1] 104 % of control | [2] 107 % of control | [3] 116 % of control | [4] 109 % of control

COc1ccc(C#N)cc1OC
inactive: dose: 6.25 mg/kg/injection, schedule: Q01DX009 (ip), vehicle: saline 99 % of control | dose: 12.5 mg/kg/injection, schedule: Q01DX009 (ip), vehicle: saline 108 % of control | [5] 92 % of control | [6] 92 % of control

OCC1OC(n2cnc3c(=S)nc[nH]c32)CC1O (stereo not drawn)
inactive: dose: 167.0 mg/kg/injection, schedule: Q01DX009 (ip), vehicle: saline with Tween-80 100 % of control | dose: 267.0 mg/kg/injection, schedule: Q01DX009 (ip), vehicle: saline with Tween-80 113 % of control

COC(=O)C1=C(\N2CCCC2)CC(C)(C)CC(=O)/C=C\1C(=O)OC
inactive: [7] 92 % of control | [8] 93 % of control | [9] 104 % of control

CCc1ccc(-c2cc(-c3ccc(CC)cc3)cc(-c3ccc(CC)cc3)c2)cc1
inactive: [10] 100 % of control | [11] 94 % of control | dose: 200.0 mg/kg/injection, schedule: Q01DX005 (ip), vehicle: saline with Tween-80 91 % of control

CCOC(=O)C1=C(C(=O)c2ccc(OC)cc2)C(c2cccc([N+](=O)[O-])c2)C(C(=O)c2ccc(OC)cc2)=C(C(=O)OCC)N1
inactive: [12] 93 % of control | [10] 90 % of control and 96 % of control | [13] 94 % of control | [14] 90 % of control

CC(C)(C)OC(=O)NC(CCCNC(=O)OCc1ccccc1)C(=O)O (stereo not drawn)
inactive: [7] 100 % of control | [8] 100 % of control | [9] 99 % of control

CCCCCCCCCCCCCC(C)NCc1ccccc1 (stereo not drawn)
inactive: dose: 25.0 mg/kg/injection, schedule: Q04DX003 (ip), vehicle: saline with Tween-80 96 % of control | dose: 50.0 mg/kg/injection, schedule: Q04DX003 (ip), vehicle: saline with Tween-80 100 % of control

CCOc1ccc(/C=N/Nc2ccc([N+](=O)[O-])cc2)cc1OC
inactive: [15] 95 % of control | [16] 90 % of control | dose: 400.0 mg/kg/injection, schedule: Q04DX003 (ip), vehicle: saline with Tween-80 90 % of control

CC1C2OC(=O)C1(C)c1ccccc1C2=O (stereo not drawn)
inactive: dose: 12.5 mg/kg/injection, schedule: Q01DX001 (ip), vehicle: Klucel (hydroxypropylcellulose) (HPC) 109 % of control | dose: 25.0 mg/kg/injection, schedule: Q01DX001 (ip), vehicle: Klucel (hydroxypropylcellulose) (HPC) 99 % of control | dose: 50.0 mg/kg/injection, schedule: Q01DX001 (ip), vehicle: Klucel (hydroxypropylcellulose) (HPC) 103 % of control

OCC1OC(n2cc(I)c3c2ncn2ccnc32)C(O)C1O (stereo not drawn)
inactive: [1] 98 % of control | [2] 102 % of control | [3] 100 % of control | [4] 102 % of control | dose: 25.0 mg/kg/injection, schedule: Q01DX009 (ip), vehicle: water 106 % of control

O=C(CCl)SCc1ccccc1
inactive: [15] 107 % of control | [16] 99 % of control

COc1ccc2c(c1)CCC1C2=CCP1(C)=O (stereo not drawn)
inactive: [5] 97 % of control | [6] 101 % of control | dose: 100.0 mg/kg/injection, schedule: Q01DX009 (ip), vehicle: saline 93 % of control | dose: 200.0 mg/kg/injection, schedule: Q01DX009 (ip), vehicle: saline 91 % of control

S=c1n(-c2ccc(Cl)cc2)c2nc3ccccc3nc(/c2=N\Nc2ccc(Br)cc2)n1-c1ccccn1
inactive: [17] 101 % of control

Cn1c(=O)c2c(N=NC(N)=S)c(O)[nH]c2n(C)c1=O
inactive: dose: 100.0 mg/kg/injection, schedule: Q04DX003 (ip), vehicle: Klucel (hydroxypropylcellulose) (HPC) 100 % of control | dose: 200.0 mg/kg/injection, schedule: Q04DX003 (ip), vehicle: Klucel (hydroxypropylcellulose) (HPC) 108 % of control | dose: 400.0 mg/kg/injection, schedule: Q04DX003 (ip), vehicle: Klucel (hydroxypropylcellulose) (HPC) 96 % of control

COc1ccc2[nH]c3c(c2c1)C(=O)c1ccncc1C3=O
inactive: dose: 37.5 mg/kg/injection, schedule: Q04DX002 (ip), vehicle: Klucel (hydroxypropylcellulose) (HPC) 87 % of control | dose: 75.0 mg/kg/injection, schedule: Q04DX002 (ip), vehicle: Klucel (hydroxypropylcellulose) (HPC) 91 % of control

COC(=O)C1=CO[C@@H](C)[C@@H]2CN3CCc4c([nH]c5cc(OC)ccc45)[C@@H]3C[C@H]12
inactive: [17] 96 % of control | [11] 92 % of control

CCOc1ccc(O)c(CN2CCN(Cc3cc(OCC)ccc3O)CC2)c1
inactive: dose: 15.0 mg/kg/injection, schedule: Q01DX005 (ip), vehicle: saline with Tween-80 100 % of control | [12] 100 % of control | [10] 98 % of control and 124 % of control

COc1cc2c(c(OC)c1OC)CCCC2=O
inactive: dose: 50.0 mg/kg/injection, schedule: Q01DX009 (ip), vehicle: Klucel (hydroxypropylcellulose) (HPC) 111 % of control | dose: 100.0 mg/kg/injection, schedule: Q01DX009 (ip), vehicle: Klucel (hydroxypropylcellulose) (HPC) 113 % of control | dose: 200.0 mg/kg/injection, schedule: Q01DX009 (ip), vehicle: Klucel (hydroxypropylcellulose) (HPC) 117 % of control

Nc1ccc(C(=O)Nc2ccc(NC(=O)c3ccco3)c(O)c2)cc1
inactive: [10] 94 % of control | [13] 91 % of control | [14] 89 % of control

O=C(CNC(=O)c1ccccc1)OC(C(=O)O)c1ccc(F)cc1 (stereo not drawn)
inactive: dose: 50.0 mg/kg/injection, schedule: Q01DX009 (ip), vehicle: saline with Tween-80 100 % of control | dose: 100.0 mg/kg/injection, schedule: Q01DX009 (ip), vehicle: saline with Tween-80 102 % of control | dose: 200.0 mg/kg/injection, schedule: Q01DX009 (ip), vehicle: saline with Tween-80 96 % of control

NC(=O)Oc1cccc(OC(N)=O)c1
inactive: dose: 25.0 mg/kg/injection, schedule: Q01DX009 (ip), vehicle: other 103 % of control | dose: 50.0 mg/kg/injection, schedule: Q01DX009 (ip), vehicle: other 111 % of control | dose: 50.0 mg/kg/injection, schedule: Q04DX003 (ip), vehicle: other 95 % of control | dose: 100.0 mg/kg/injection, schedule: Q01DX009 (ip), vehicle: other 113 % of control | dose: 200.0 mg/kg/injection, schedule: Q01DX009 (ip), vehicle: other 113 % of control | dose: 200.0 mg/kg/injection, schedule: Q04DX003 (ip), vehicle: other 98 % of control

COc1ccc2c(c1)C(Br)CCCC2=O (stereo not drawn)
inactive: dose: 400.0 mg/kg/injection, schedule: Q01DX009 (ip), vehicle: distilled water + alcohol 106 % of control

C=CC(=O)C(C(=O)OCC)=P(c1ccccc1)(c1ccccc1)c1ccccc1
inactive: dose: 60.0 mg/kg/injection, schedule: Q01DX005 (ip), vehicle: Klucel (hydroxypropylcellulose) (HPC) 98 % of control | dose: 120.0 mg/kg/injection, schedule: Q01DX005 (ip), vehicle: Klucel (hydroxypropylcellulose) (HPC) 97 % of control | dose: 240.0 mg/kg/injection, schedule: Q01DX005 (ip), vehicle: Klucel (hydroxypropylcellulose) (HPC) 101 % of control

CC1CCCC(C)N1CC#CCNC(=O)C1CCC(=O)N1 (stereo not drawn)
inactive: dose: 25.0 mg/kg/injection, schedule: Q01DX005 (ip), vehicle: Klucel (hydroxypropylcellulose) (HPC) 100 % of control | [7] 102 % of control | [8] 121 % of control

COC(=O)c1cc2[n+](cc1C(=O)OC)CCc1cc3c(cc1-2)OCO3
inactive: dose: 0.63 mg/kg/injection, schedule: Q01DX009 (ip), vehicle: water 99 % of control | dose: 1.25 mg/kg/injection, schedule: Q01DX009 (ip), vehicle: water 97 % of control | dose: 2.5 mg/kg/injection, schedule: Q01DX009 (ip), vehicle: water 97 % of control | dose: 5.0 mg/kg/injection, schedule: Q01DX009 (ip), vehicle: water 106 % of control | dose: 10.0 mg/kg/injection, schedule: Q01DX009 (ip), vehicle: water 99 % of control | dose: 20.0 mg/kg/injection, schedule: Q01DX009 (ip), vehicle: water 92 % of control

O=S(=O)(O)c1cc2cc(S(=O)(=O)O)c3nnc4cc(S(=O)(=O)O)cc5cc(S(=O)(=O)O)c(nnc6cc(S(=O)(=O)O)cc7cc(S(=O)(=O)O)c(nnc(c1)c2c3O)c(O)c76)c(O)c54
inactive: [12] 93 % of control | [10] 106 % of control and 91 % of control
